In US8288363B2, “Medicaments for anti-herpes virus treatments” (ASE & BIO, priority 2006, dated 2012):

Experiments:
HSV-1 = test: Anti-herpes activity, viability of infected vero cells (neutral red); assay type: cell-based, herpes simplex virus 1; conditions: for EC50: MOI 0.01 ID50/cell
Protocol: (§1) This method is based on the principle that living cells absorb neutral red, which is a vital stain. The optical density of the medium was measured at the maximum absorption wavelength of neutral red, that is to say 540 nm, using a spectrophotometer (SpectraCount™, microplate photometer, Packard). The optical density at 540 nm is proportional to the number of living cells in an infected culture (McLaren et al., Antiviral Research, 1983; 3: 223-234 and Langlois et al., Standardization, 1986, 14: 201-211).
(§2) The effective concentration (EC 50%), that is to say the concentration of the sulphated polysaccharide which enables infection of 50% of the cells of a culture to be inhibited, was measured for each viral strain.
(§3) The determination of the EC50 was carried out in 96-well microtitre plates in accordance with the following protocol. Vero cells are seeded at a cell density of 3.5·10^4 cells/well in 100 μl of MEM medium containing 8% FCS. For each viral suspension defined by its MOI: • the negative control column was filled with 100 μl of MEM medium with 8% FCS, • the virus control column was filled with 50 μl of viral suspension having the required MOI and with 50 μl of MEM medium with 8% FCS, • the PS3 control column was filled with 50 μl of PS3 having the desired concentration range or with 50 μl of acyclovir (Zovirax 0.05-5 μg/ml • finally, all the other columns were filled successively with 50 μl of PS3 having the required concentration range or with 50 μl of acyclovir (Zovirax 0.05-5 μg/ml) and with 50 μl of the viral suspension having the desired MOI.
(§4) The EC50 corresponding to the concentration which enables the cytopathic effect of the virus to be reduced by 50% was calculated in accordance with the following formula: […]
(§5) The anti-herpes activity of PS3 was evaluated and compared on each viral suspension of HSV-1, HSV-1R, HSV-2 and HSV-2R defined by an MOI of 0.01 ID50/cell for a cell concentration of 350,000 cells/ml, after incubation times of 48 and 72 hours.
(§6) This series of experiments was carried out applying the protocol enabling the EC50 to be determined, as described in Example 3.
(§7) The therapeutic indices (TI) of PS3, as well as three other reference products, that is to say acyclovir, dextran sulphate and phycarine, were determined in parallel for each viral strain.
(§8) The therapeutic index (TI) represents the ratio between the maximum non-toxic dose (or a dose inducing a quantified toxicity) and the dose inducing a favourable pharmacological effect.

[1] = tested on: acyclovir-resistant strain HSV-1R; test: as above; assay type: cell-based, herpes simplex virus 1; conditions: for Anti-herpes activity (conclusion in words) / EC50: HSV-1R; for Anti-herpes activity (conclusion in words): 48 and 72 hours; for EC50: MOI 0.01 ID50/cell
Protocol: as §1, §2, §3, §4, §5, §6, §7, §8

[2] = tested on: intrinsic coagulation system; test: APTT (activated partial thromboplastin time) test; assay type: biochemical; conditions: relative to heparin
Protocol: For this, the anticoagulant activity of the laminarin sulphate PS3 obtained in Example 1 was determined as a function of its concentration in comparison with that of heparin in the conventional coagulation, APTT or “activated partial thromboplastin time” tests, the prothombin time test, the so-called “HEPTEST” test and the thrombin time test. The APTT reflects an interaction with the intrinsic coagulation system, while the prothrombin time reflects an interaction with the extrinsic coagulation; the so-called “HEPTEST” test is the conventional test for measurement of the inhibitory activity of heparin with respect to factor Xa, and the thrombin time corresponds to the last stage of coagulation, that is to say the formation of fibrins induced by thrombin.

factor Xa = test: HEPTEST coagulation test; assay type: biochemical; conditions: in contrast to heparin
Protocol: For this, the anticoagulant activity of the laminarin sulphate PS3 obtained in Example 1 was determined as a function of its concentration in comparison with that of heparin in the conventional coagulation, APTT or “activated partial thromboplastin time” tests, the prothombin time test, the so-called “HEPTEST” test and the thrombin time test. The APTT reflects an interaction with the intrinsic coagulation system, while the prothrombin time reflects an interaction with the extrinsic coagulation; the so-called “HEPTEST” test is the conventional test for measurement of the inhibitory activity of heparin with respect to factor Xa, and the thrombin time corresponds to the last stage of coagulation, that is to say the formation of fibrins induced by thrombin. […] The specific activity (IU/mg) in the APTT represents 30% of the heparin activity, and in the case of the thrombin time 60%. To prevent coagulation totally, it was necessary to apply a concentration 4 times higher in the case of the APTT and a concentration 20 times higher in the case of the thrombin time.

[3] = tested on: rats of the Sprague Dawley breed; test: Acute oral toxicity; assay type: in vivo
Protocol: This study was carried out on white rabbits of the New Zealand breed and on rats of the Sprague Dawley breed.
The rats were subjected on the one hand to a study for determination of the acute dermal toxicity and on the other hand to a study for determination of the acute oral toxicity.
observing the OECD Guidelines no. 404 and 405 of 24 Feb. 1987 to the extent that they are studies carried out on white rabbits, and OECD Guidelines no. 401 and 402 (1987) as well as EEC Directive B-I 92/69 (1992) to the extent that they are studies carried out on Sprague Dawley rats.

| Compound | Therapeutic index HSV-1 (HSV-1; incubation time 48 hours) | Therapeutic index HSV-1 (HSV-1; incubation time 72 hours) | Anti-herpes activity (conclusion in words) [1] | Therapeutic index HSV-1R ([1]; incubation time 48 hours) | Therapeutic index HSV-1R ([1]; incubation time 72 hours) | EC50 (HSV-1; HSV-1, after 48 hours of treatment) | EC50 (HSV-1; HSV-1, after 72 hours of treatment) | EC50 ([1]; after 48 hours of treatment) | EC50 ([1]; after 72 hours of treatment) | Concentration needed to prevent coagulation totally, APTT [2] | Specific activity (IU/mg) in the APTT as share of the heparin activity [2] | Activity in the HEPTEST test compared with heparin (factor Xa) | acute toxicity by the oral route [3] |
| --- | --- | --- | --- | --- | --- | --- | --- | --- | --- | --- | --- | --- | --- |
| Nc1nc2c(ncn2COCCO)c(=O)[nH]1 [Acyclovir, acyclovir, reference compound] | >4,902 | >1,492 | not effective | 0 | 0 |  |  |  |  |  |  |  |  |
| sulphated laminarin [PS3] | >1,761 | >651 | more effective than acyclovir | >1,157 | >530 | less than 2 μg/ml | less than 5 μg/ml | less than 2 μg/ml | less than 5 μg/ml | 4 times higher | 30% | more than 20 times weaker | greater than 2 g/kg of body weight |
